According to US11780832B2, “Lactivicin compounds, their preparation and use as antibacterial agents” (priority 2021, dated 2023):
In brackets after ≈: the same amount, converted by molar mass. Where two headings read alike, the source gives them in different places.

How the values were obtained:
Test in all cases: MIC, CLSI broth microdilution
Format in all cases: cell-based
[1] = test system: Pseudomonas aeruginosa ATCC 27853; settings: ATCC27853
Procedure: (§1) Gram-negative and Gram-positive bacterial strains used during the in vitro minimum inhibitory concentration (MIC) determination were obtained either from the American Type Culture Collection (ATCC) or from clinical specimens. All strains were characterized genotypically and the respective antibiotic resistance markers for each strain were identified.
(§2) Isolates were sub-cultured onto appropriate media and stocked in skim milk at −80° C. Following two subcultures from frozen stock, in vitro antimicrobial susceptibility testing was performed using the Clinical and Laboratory Standards Institute (CLSI) broth microdilution method. Briefly, fresh cultures were suspended in culture media to give a final stock inoculum size of 5×10^7 colony forming units per milliliter of broth (CFU/mL). […] 100 μL of the stock solutions were added to the first wells in a 96-well plate and were then diluted using a 2-fold dilution method to give a range of 32-0.025 μg/mL. 100 μL of the bacterial suspensions were then added to the 96-well plates to give a final working inoculum size of 5×10^5 CFU/mL. The final compound concentration range was 16-0.0125 μg/mL. […] MICs for comparator agents were determined using custom-designed, in-house prepared 96-well broth microdilution panels.

[2] = test system: Citrobacter freundii species complex OXA-181
Procedure: as §1, §2

[3] = test system: Klebsiella pneumoniae OXA-163, OXA-1_OXA-30, SHV-1, TEM-1
Procedure: as §1, §2

[4] = test system: Serratia marcescens SME-2; settings: SME2
Procedure: as §1, §2

[5] = test system: Klebsiella aerogenes VIM-1, SHV-12
Procedure: as §1, §2

[6] = test system: Escherichia coli Empty pSMART plasmid
Procedure: as §1, §2

[7] = test system: Klebsiella oxytoca KPC-2, TEM-1
Procedure: as §1, §2

[8] = test system: Klebsiella pneumoniae OXA-48, SHV-1
Procedure: as §1, §2

[9] = test system: Escherichia coli Isogenic TEM-10
Procedure: as §1, §2

[10] = test system: Escherichia coli ATCC 25922; settings: ATCC25922
Procedure: as §1, §2

[11] = test system: Klebsiella pneumoniae KPC-3
Procedure: as §1, §2

[12] = test system: Pseudomonas aeruginosa OprD negative
Procedure: as §1, §2

[13] = test system: Klebsiella pneumoniae KPC-2; settings: KPC2
Procedure: as §1, §2

[14] = test system: Escherichia coli CTX-M-15; settings: CTXM15
Procedure: as §1, §2

[15] = test system: Klebsiella pneumoniae SHV-12
Procedure: as §1, §2

[16] = test system: Enterobacter cloacae species complex NDM-1
Procedure: as §1, §2

[17] = test system: Escherichia coli CMY-2; settings: CMY2
Procedure: as §1, §2

[18] = test system: Serratia marcescens AmpC overexpressed
Procedure: as §1, §2

[19] = test system: Escherichia coli pSMART_Ecloacae_AmpC
Procedure: as §1, §2

[20] = test system: Acinetobacter baumannii ATCC 19606; settings: ATCC19606
Procedure: as §1, §2

[21] = test system: Escherichia coli pSMART_Cfreundii_AmpC
Procedure: as §1, §2

[22] = test system: Pseudomonas aeruginosa AmpC overexpressed
Procedure: as §1, §2

[23] = test system: Escherichia coli Isogenic TEM-26
Procedure: as §1, §2

[24] = test system: Escherichia coli SHV-12; settings: SHV12
Procedure: as §1, §2

[25] = Citrobacter freundii species complex, OXA-181, read-out: MIC

SMILES	MIC [1] [µg/mL]	MIC [3] [µg/mL]	MIC [4] [µg/mL]	MIC [5] [µg/mL]	MIC [6] [µg/mL]	MIC [8] [µg/mL]	MIC [9] [µg/mL]	MIC [10] [µg/mL]	MIC [12] [µg/mL]	MIC [13] [µg/mL]	MIC [14] [µg/mL]	MIC [16] [µg/mL]	MIC [17] [µg/mL]	MIC [18] [µg/mL]	MIC [19] [µg/mL]	MIC [20] [µg/mL]	MIC [21] [µg/mL]	MIC [22] [µg/mL]	MIC [23] [µg/mL]	MIC [24] [µg/mL]	other results
CC(C)(O/N=C(\C(=O)N[C@H]1CON(C2(C(=O)O)C[C@H](N3Cc4cc(O)c(O)cc4C3=O)C(=O)O2)C1=O)c1csc(N)n1)C(=O)O (stereo partly drawn) [Cmpd 35, (4S)-2-[(4S)-4-{[(2Z)-2-(2-amino-1,3-thiazol-4-yl)-2-{[(2-carboxypropan-2-yl)oxy]imino}acetyl]amino}-3-oxo-1,2-oxazolidin-2-yl]-4-(5,6-dihydroxy-1-oxo-1,3-dihydro-2H-isoindol-2-yl)-5-oxooxolane-2-carboxylic acid]	0.5 (≈ 0.771 µM)	0.5 (≈ 0.771 µM)	0.25 (≈ 0.385 µM)	1 (≈ 1.54 µM)	0.06 (≈ 0.0925 µM)	0.03 (≈ 0.0463 µM)	0.06 (≈ 0.0925 µM)	0.5 (≈ 0.771 µM)	0.5 (≈ 0.771 µM)	0.12 (≈ 0.185 µM)	1 (≈ 1.54 µM)	1 (≈ 1.54 µM)	8 (≈ 12.3 µM)	0.5 (≈ 0.771 µM)	0.25 (≈ 0.385 µM)	0.25 (≈ 0.385 µM)	0.5 (≈ 0.771 µM)	2 (≈ 3.08 µM)	0.12 (≈ 0.185 µM)	1 (≈ 1.54 µM)	MIC [2, 25]: 0.25 µg/mL (≈ 0.385 µM); MIC ([7]; KPC-2, TEM-1, read-out: MIC): 0.0149 µg/mL (≈ 0.023 µM); MIC ([11]; KPC3, KPC-3, read-out: MIC): 0.25 µg/mL (≈ 0.385 µM); MIC ([15]; SHV12, SHV-12, read-out: MIC): 0.06 µg/mL (≈ 0.0925 µM)
CC(C)(O/N=C(\C(=O)N[C@H]1CON(C2(C(=O)O)C[C@H](N3C(=O)c4cc(O)c(O)nc4C3=O)C(=O)O2)C1=O)c1csc(N)n1)C(=O)O (stereo partly drawn) [Cmpd 36, (4S)-2-[(4S)-4-{[(2Z)-2-(2-amino-1,3-thiazol-4-yl)-2-{[(2-carboxypropan-2-yl)oxy]imino}acetyl]amino}-3-oxo-1,2-oxazolidin-2-yl]-4-(2,3-dihydroxy-5,7-dioxo-5,7-dihydro-6H-pyrrolo[3,4-b]pyridin-6-yl)-5-oxooxolane-2-carboxylic acid]	0.12 (≈ 0.181 µM)	0.06 (≈ 0.0904 µM)	0.06 (≈ 0.0904 µM)	2 (≈ 3.01 µM)	0.06 (≈ 0.0904 µM)	0.0149 (≈ 0.0225 µM)	0.0149 (≈ 0.0225 µM)	0.06 (≈ 0.0904 µM)	0.12 (≈ 0.181 µM)	0.12 (≈ 0.181 µM)	2 (≈ 3.01 µM)	0.25 (≈ 0.377 µM)	1 (≈ 1.51 µM)	0.06 (≈ 0.0904 µM)	0.03 (≈ 0.0452 µM)	0.12 (≈ 0.181 µM)	0.06 (≈ 0.0904 µM)	0.5 (≈ 0.754 µM)	0.0149 (≈ 0.0225 µM)	1 (≈ 1.51 µM)	MIC ([2]; Citrobacter freundii): 0.0149 µg/mL (≈ 0.0225 µM); MIC [7]: 0.0149 µg/mL (≈ 0.0225 µM); MIC ([11]; KPC3): 0.0149 µg/mL (≈ 0.0225 µM); MIC ([15]; SHV12): 0.0149 µg/mL (≈ 0.0225 µM)
Nc1nc(/C(=N/OC2(C(=O)O)CCC(F)(Cl)CC2)C(=O)N[C@H]2CON(C3(C(=O)O)C[C@H](N4C(=O)c5cc(O)c(O)cc5C4=O)C(=O)O3)C2=O)cs1 (stereo partly drawn) [Cmpd 11, (4S)-2-[(4S)-4-{[(2Z)-2-(2-amino-1,3-thiazol-4-yl)-2-{[(1-carboxy-4-chloro-4-fluorocyclohexyl)oxy]imino}acetyl]amino}-3-oxo-1,2-oxazolidin-2-yl]-4-(5,6-dihydroxy-1,3-dioxo-1,3-dihydro-2H-isoindol-2-yl)-5-oxooxolane-2-carboxylic acid]	0.25 (≈ 0.331 µM)	0.12 (≈ 0.159 µM)	0.06 (≈ 0.0795 µM)	0.12 (≈ 0.159 µM)	≤ 0.015	≤ 0.015	0.06 (≈ 0.0795 µM)	0.12 (≈ 0.159 µM)	0.25 (≈ 0.331 µM)	0.03 (≈ 0.0397 µM)	2 (≈ 2.65 µM)	2 (≈ 2.65 µM)	1 (≈ 1.32 µM)	0.06 (≈ 0.0795 µM)	0.06 (≈ 0.0795 µM)	0.25 (≈ 0.331 µM)	0.06 (≈ 0.0795 µM)	2 (≈ 2.65 µM)	0.03 (≈ 0.0397 µM)	2 (≈ 2.65 µM)	MIC [2, 25]: 0.03 µg/mL (≈ 0.0397 µM); MIC ([7]; KPC-2, TEM-1, read-out: MIC): ≤ 0.015 µg/mL; MIC ([11]; KPC3, KPC-3, read-out: MIC): 0.06 µg/mL (≈ 0.0795 µM); MIC ([15]; SHV12, SHV-12, read-out: MIC): 0.03 µg/mL (≈ 0.0397 µM)
Nc1nc(/C(=N/OC2(C(=O)O)CCOCC2)C(=O)N[C@H]2CON(C3(C(=O)O)C[C@H](N4Cc5cc(O)c(O)cc5C4=O)C(=O)O3)C2=O)cs1 (stereo partly drawn) [Cmpd 29, 4-({(Z)-[1-(2-amino-1,3-thiazol-4-yl)-2-({(4S)-2-[(4S)-2-carboxy-4-(5,6-dihydroxy-1-oxo-1,3-dihydro-2H-isoindol-2-yl)-5-oxooxolan-2-yl]-3-oxo-1,2-oxazolidin-4-yl}amino)-2-oxoethylidene]amino}oxy)oxane-4-carboxylic acid]	0.5 (≈ 0.724 µM)	0.25 (≈ 0.362 µM)	0.25 (≈ 0.362 µM)	0.25 (≈ 0.362 µM)	0.5 (≈ 0.724 µM)	0.03 (≈ 0.0434 µM)	0.03 (≈ 0.0434 µM)	0.5 (≈ 0.724 µM)	0.5 (≈ 0.724 µM)	0.0149 (≈ 0.0216 µM)	2 (≈ 2.9 µM)	4 (≈ 5.79 µM)	2 (≈ 2.9 µM)	0.25 (≈ 0.362 µM)	0.12 (≈ 0.174 µM)	0.12 (≈ 0.174 µM)	0.25 (≈ 0.362 µM)	2 (≈ 2.9 µM)	0.03 (≈ 0.0434 µM)	2 (≈ 2.9 µM)	MIC [2, 25]: 0.12 µg/mL (≈ 0.174 µM); MIC ([7]; KPC-2, TEM-1, read-out: MIC): 0.0149 µg/mL (≈ 0.0216 µM); MIC ([11]; KPC3, KPC-3, read-out: MIC): 0.06 µg/mL (≈ 0.0869 µM); MIC ([15]; SHV12, SHV-12, read-out: MIC): 0.06 µg/mL (≈ 0.0869 µM)
Nc1nc(/C(=N/OC2(C(=O)O)CC3CCC(C2)O3)C(=O)N[C@H]2CON(C3(C(=O)O)C[C@H](N4Cc5cc(O)c(O)cc5C4=O)C(=O)O3)C2=O)cs1 (stereo partly drawn) [Cmpd 30, 3-({(Z)-[1-(2-amino-1,3-thiazol-4-yl)-2-({(4S)-2-[(4S)-2-carboxy-4-(5,6-dihydroxy-1-oxo-1,3-dihydro-2H-isoindol-2-yl)-5-oxooxolan-2-yl]-3-oxo-1,2-oxazolidin-4-yl}amino)-2-oxoethylidene]amino}oxy)-8-oxabicyclo[3.2.1]octane-3-carboxylic acid]	4 (≈ 5.58 µM)	1 (≈ 1.4 µM)	0.5 (≈ 0.698 µM)	0.12 (≈ 0.167 µM)	1 (≈ 1.4 µM)	0.06 (≈ 0.0837 µM)	0.12 (≈ 0.167 µM)	1 (≈ 1.4 µM)	1 (≈ 1.4 µM)	0.03 (≈ 0.0419 µM)	8 (≈ 11.2 µM)	4 (≈ 5.58 µM)	4 (≈ 5.58 µM)	0.5 (≈ 0.698 µM)	0.25 (≈ 0.349 µM)	0.5 (≈ 0.698 µM)	0.25 (≈ 0.349 µM)	4 (≈ 5.58 µM)	0.5 (≈ 0.698 µM)	8 (≈ 11.2 µM)	MIC [2, 25]: 0.12 µg/mL (≈ 0.167 µM); MIC ([7]; KPC-2, TEM-1, read-out: MIC): 0.03 µg/mL (≈ 0.0419 µM); MIC ([11]; KPC3, KPC-3, read-out: MIC): 0.12 µg/mL (≈ 0.167 µM); MIC ([15]; SHV12, SHV-12, read-out: MIC): 0.25 µg/mL (≈ 0.349 µM)
Nc1nc(/C(=N/OC(CO)(CCl)C(=O)O)C(=O)N[C@H]2CON(C3(C(=O)O)C[C@H](N4C(=O)c5cc(O)c(O)cc5C4=O)C(=O)O3)C2=O)cs1 (stereo partly drawn) [Cmpd 6, (4S)-2-[(4S)-4-{[(2Z)-2-(2-amino-1,3-thiazol-4-yl)-2-{[(2-carboxy-1-chloro-3-hydroxypropan-2-yl)oxy]imino}acetyl]amino}-3-oxo-1,2-oxazolidin-2-yl]-4-(5,6-dihydroxy-1,3-dioxo-1,3-dihydro-2H-isoindol-2-yl)-5-oxooxolane-2-carboxylic acid]	0.25 (≈ 0.351 µM)	0.03 (≈ 0.0421 µM)	0.06 (≈ 0.0842 µM)	0.5 (≈ 0.701 µM)	≤ 0.015	≤ 0.015	≤ 0.015	0.12 (≈ 0.168 µM)	2 (≈ 2.81 µM)	0.03 (≈ 0.0421 µM)	2 (≈ 2.81 µM)	0.25 (≈ 0.351 µM)	1 (≈ 1.4 µM)	0.12 (≈ 0.168 µM)	0.06 (≈ 0.0842 µM)	0.12 (≈ 0.168 µM)	0.06 (≈ 0.0842 µM)	1 (≈ 1.4 µM)	≤ 0.015	1 (≈ 1.4 µM)	MIC [2, 25]: ≤ 0.015 µg/mL; MIC ([7]; KPC-2, TEM-1, read-out: MIC): ≤ 0.015 µg/mL; MIC ([11]; KPC3, KPC-3, read-out: MIC): 0.03 µg/mL (≈ 0.0421 µM); MIC ([15]; SHV12, SHV-12, read-out: MIC): ≤ 0.015 µg/mL
